System: HCV (JFH-1) in Huh7-1 cells
Experiment: Assay for anti-HCV efficacy: JFH-1 HCV infection of Huh7-1 cultures, intracellular HCV RNA by RT-qPCR
Type: cell-based, Hepatitis C virus
Settings: % viral titer at 5 μM or 15 μM, HCV-infected Huh7-1 cultures
Description: In the past, HCV studies involved mainly infected patients and chimpanzees. Recently, a robust HCV infection system was developed with cells derived from the Huh-7 human hepatoma cell line (see, for example, Yu et al., “Development of a cell-based hepatitis C virus infection fluorescent resonance energy transfer assay for high-throughput antiviral compound screening” Antimicrob Agents Chemother. 2009 53:4311-4319 for additional details regarding growing virus stocks, maintenance of the Huh-7 cells, infection parameters, and HCV titers determinations; and Yu & Uprichard “Cell-based hepatitis C virus infection fluorescence resonance energy transfer (FRET) assay for antiviral compound screening” Curr Protoc Microbiol. 2010; Chapter 17: Unit 17.5). Briefly, the assay is based on the unique JFH-1 HCV consensus cDNA derived from an HCV patient. Using reverse genetics, the infectious virus can be rescued from this HCV clone. The recovered viable JFH virus can be passaged serially in Huh-7 cells. For this reason, this system is amenable for testing the activity of potential drugs for their anti-HCV efficacy. The antiviral activity of the compounds described herein is tested in this system.
Initially, 6×10^3 Huh7-1 cells are incubated overnight in each well of collagen-coated BioCoat 96-well plates (BD Biosciences, Bedford, Mass.) in 0.2 mL 10% Medium composed of Dulbecco's modified Eagle's medium supplemented with 10% fetal bovine serum. Subsequently, at 2 day intervals, the cultures are replenished with fresh 0.2 mL 10% Medium. Once the cultures become confluent, they are continually replenished at 2 day intervals with fresh 0.2 mL 10% Medium that also includes 1% dimethyl sulfoxide (DMSO). After 20 days of these replenishments, the Huh7-1 cultures are incubated with fresh 1% Medium (same as 10% Medium except that the serum level is 1%) containing HCV at a multiplicity of infection (MOI) of 0.05 focus forming units (ffu)/cell. The HCV (JFH-1wt Huh7) stock titer is 1.5×10^5 ffu/mL. The next day (day 1 post-infection) and 2 days later (day 3 post-infection) the media are replenished with fresh 1% Medium containing the test compounds dissolved in DMSO. On the 5th day of treatment with the compounds, cell lysates are collected for RNA isolation and Real Time-quantitative Reverse Transcription Polymerase Chain Reaction (RT-qPCR) and culture media are collected for cytotoxicity analysis.
Total RNA is isolated from cells by the guanidine thiocyanate method using standard protocols. One μg RNA is used for cDNA synthesis using TaqMan reverse transcription reagents (Applied Biosystems, Foster City, Calif.) followed by real-time PCR using an Applied Biosystems 7300 real-time thermocycler. Illustrative thermal cycling consists of initial denaturation of 10 min at 95° C. followed by 40 cycles of denaturation (15 s at 95° C.) and annealing/extension (1 m at 60° C.). HCV and human glyceraldehyde-3-phosphate dehydrogenase (GAPDH) RNA levels are determined relative to a standard curve of serial dilutions of plasmid containing JFH-1 HCV or GAPDH cDNA. The PCR primers used to detect GAPDH and HCV are illustratively: GAPDH (NMX002046) 5′-GAAGGTGAAGGTCGGAGTC-3′ (SEQ ID NO: 5) (sense) and 5′-[…]-3′ (SEQ ID NO: 6) (anti-sense) JFH-1 HCV (AB047639) 5′-TCTGCGGAACCGGTGAGTA-3′ (SEQ ID NO: 7) (sense) and 5′-TCAGGCAGTACCACAAGGC-3′ (SEQ ID NO: 8) (anti-sense).
FIGS. 1-7 illustrate the intracellular HCV RNA levels when cultures are incubated with the selected test compounds at the doses shown. When HCV RNA levels are compared among the samples, the data may indicate that the compounds cause a dose dependent decrease in HCV RNA levels relative to the mock-treated (no compound added) HCV infected control.

Compound	Activity (viral titer) (Compound Example 2 series)	Activity (viral titer) (Compound Example 1 series)
O=C(c1ccccc1)N1CC(c2ccsc2)C2CN(Cc3cccnc3)CCC21 (centres unmarked)	− (>60% viral titer at 15 μM (highest concentration tested))	
Cc1ccccc1CN1CC[C@H]2[C@@H](C1)[C@H](c1ccsc1)CN2C(=O)c1ccncc1	− (>60% viral titer at 15 μM (highest concentration tested))	
Cc1ccc(CN2CCC3C(C2)C(c2ccsc2)CN3C(=O)c2ccncc2)cc1 (centres unmarked)	− (>60% viral titer at 15 μM (highest concentration tested))	
O=C(c1ccncc1)N1C[C@@H](c2ccsc2)[C@@H]2CN(Cc3cccc(F)c3F)CC[C@@H]21	− (>60% viral titer at 15 μM (highest concentration tested))	
COc1cccc(CN2CCC3C(C2)C(c2ccc(F)cc2)CN3C(=O)c2ccccc2)c1 (centres unmarked)		+++ (≦30% viral titer at 5 μM)
COc1ccc(C2CN(C(=O)c3ccccc3)C3CCN(Cc4cccs4)CC23)cc1 (centres unmarked)		− (>60% viral titer at 15 μM (highest concentration tested))
COc1ccc(CN2CC[C@H]3[C@@H](C2)[C@H](c2ccsc2)CN3C(=O)c2ccncc2)cc1	− (>60% viral titer at 15 μM (highest concentration tested))	
COc1cccc(C2CN(C(=O)c3ccccc3)C3CCN(Cc4ccsc4)CC23)c1 (centres unmarked)		++ (≦60% viral titer at 5 μM)
O=C(c1ccccc1F)N1C[C@H](c2ccsc2)[C@H]2CN(Cc3cccnc3)CC[C@H]21		− (>60% viral titer at 15 μM (highest concentration tested))
COc1cccc(C2CN(C(=O)c3ccccc3)C3CCN(Cc4ccccn4)CC23)c1 (centres unmarked)		− (>60% viral titer at 15 μM (highest concentration tested))
O=C(c1cccnc1)N1CC(c2ccc(F)cc2)C2CN(Cc3ccccc3Cl)CCC21 (centres unmarked)		− (>60% viral titer at 15 μM (highest concentration tested))
O=C(c1ccccn1)N1CC(c2ccc(F)cc2)C2CN(Cc3ccc(Cl)cc3)CCC21 (centres unmarked)		− (>60% viral titer at 15 μM (highest concentration tested))
COc1cccc(CN2CCC3C(C2)C(c2ccc(F)cc2)CN3C(=O)c2ccccn2)c1 (centres unmarked)		− (>60% viral titer at 15 μM (highest concentration tested))
O=C(c1ccncc1)N1CC(c2ccc(F)cc2)C2CN(Cc3ccsc3)CCC21 (centres unmarked)		− (>60% viral titer at 15 μM (highest concentration tested))
O=C(c1ccccc1)N1C[C@@H](c2ccsc2)[C@@H]2CN(Cc3ccc(F)cc3)CC[C@@H]21	++ (≦60% viral titer at 5 μM)	
O=C(c1ccc(F)cc1)N1C[C@H](c2ccsc2)[C@H]2CN(Cc3cccs3)CC[C@H]21		− (>60% viral titer at 15 μM (highest concentration tested))
O=C(c1ccncc1)N1CC(c2ccc(F)cc2)C2CN(Cc3cccs3)CCC21 (centres unmarked)		− (>60% viral titer at 15 μM (highest concentration tested))
COc1ccc(C2CN(C(=O)c3ccccc3)C3CCN(Cc4ccccc4F)CC23)cc1 (centres unmarked)		++ (≦60% viral titer at 5 μM)
COc1cccc([C@H]2CN(C(=O)c3ccccc3)[C@@H]3CCN(Cc4ccncc4)C[C@H]23)c1		− (>60% viral titer at 15 μM (highest concentration tested))
O=C(c1ccncc1)N1C[C@@H](c2ccsc2)[C@@H]2CN(Cc3ccccc3Cl)CC[C@@H]21	− (>60% viral titer at 15 μM (highest concentration tested))	
O=C(c1ccncc1)N1C[C@@H](c2ccc(F)cc2)[C@@H]2CN(Cc3ccccn3)CC[C@@H]21	− (>60% viral titer at 15 μM (highest concentration tested))	
O=C(c1ccccc1)N1C[C@H](c2ccc(F)cc2)[C@H]2CN(Cc3ccc(F)cc3)CC[C@H]21		+++ (≦30% viral titer at 5 μM)
Cc1ccc(CN2CCC3C(C2)C(c2ccsc2)CN3C(=O)c2ccc(F)cc2)cc1 (centres unmarked)	− (>60% viral titer at 15 μM (highest concentration tested))	
O=C(c1ccccc1)N1C[C@@H](c2ccsc2)[C@@H]2CN(Cc3ccccc3Cl)CC[C@@H]21	− (>60% viral titer at 15 μM (highest concentration tested))	

Compound	Activity (viral titer) (Compound Example 2 series)	Activity (viral titer) (Compound Example 1 series)
COc1ccccc1CN1CC[C@H]2[C@@H](C1)[C@H](c1ccsc1)CN2C(=O)c1ccccc1	− (>60% viral titer at 15 μM (highest concentration tested))	
O=C(c1cccnc1)N1CC(c2ccc(F)cc2)C2CN(Cc3ccc(F)cc3)CCC21 (centres unmarked)		− (>60% viral titer at 15 μM (highest concentration tested))
O=C(c1ccccn1)N1CC(c2ccc(F)cc2)C2CN(Cc3cccnc3)CCC21 (centres unmarked)		− (>60% viral titer at 15 μM (highest concentration tested))
O=C(c1ccccc1F)N1C[C@H](c2ccsc2)[C@H]2CN(Cc3cccc(F)c3)CC[C@H]21		++ (≦60% viral titer at 5 μM)
O=C(c1ccncc1)N1CC(c2ccc(F)cc2)C2CN(Cc3ccncc3)CCC21 (centres unmarked)	− (>60% viral titer at 15 μM (highest concentration tested))	
Cc1ccc(CN2CC[C@@H]3[C@H](C2)[C@@H](c2ccsc2)CN3C(=O)c2ccccc2F)cc1		− (>60% viral titer at 15 μM (highest concentration tested))
COc1cccc(CN2CC[C@H]3[C@@H](C2)[C@H](c2ccc(F)cc2)CN3C(=O)c2cccnc2)c1	+ (≦60% viral titer at 15 μM)	
O=C(c1ccncc1)N1CC(c2ccc(F)cc2)C2CN(Cc3ccccc3)CCC21 (centres unmarked)	− (>60% viral titer at 15 μM (highest concentration tested))	
O=C(c1ccccn1)N1C[C@@H](c2ccc(F)cc2)[C@@H]2CN(Cc3ccc(F)cc3)CC[C@@H]21	− (>60% viral titer at 15 μM (highest concentration tested))	
O=C(c1ccc(F)cc1)N1CC(c2ccsc2)C2CN(Cc3ccccn3)CCC21 (centres unmarked)	− (>60% viral titer at 15 μM (highest concentration tested))	
Cc1cccc(CN2CCC3C(C2)C(c2ccsc2)CN3C(=O)c2ccccc2F)c1 (centres unmarked)		++ (≦60% viral titer at 5 μM)
COc1cccc(C2CN(C(=O)c3ccccc3)C3CCN(Cc4ccc(C)cc4)CC23)c1 (centres unmarked)		+ (≦60% viral titer at 15 μM)
Cc1ccccc1CN1CC[C@@H]2[C@H](C1)[C@@H](c1ccc(F)cc1)CN2C(=O)c1cccs1		− (>60% viral titer at 15 μM (highest concentration tested))
COc1ccc([C@H]2CN(C(=O)c3ccccc3)[C@@H]3CCN(Cc4ccsc4)C[C@H]23)cc1		− (>60% viral titer at 15 μM (highest concentration tested))
O=C(c1ccncc1)N1CC(c2ccsc2)C2CN(Cc3ccccc3)CCC21 (centres unmarked)	− (>60% viral titer at 15 μM (highest concentration tested))	
COc1cccc([C@H]2CN(C(=O)c3ccccc3)[C@@H]3CCN(Cc4ccccc4)C[C@H]23)c1		− (>60% viral titer at 15 μM (highest concentration tested))
O=C(c1cccnc1)N1C[C@H](c2ccc(F)cc2)[C@H]2CN(Cc3ccncc3)CC[C@H]21		− (>60% viral titer at 15 μM (highest concentration tested))
O=C(c1ccncc1)N1CC(c2ccsc2)C2CN(Cc3cccs3)CCC21 (centres unmarked)		− (>60% viral titer at 15 μM (highest concentration tested))
O=C(c1ccncc1)N1C[C@@H](c2ccc(F)cc2)[C@@H]2CN(Cc3ccccc3Cl)CC[C@@H]21	+++ (≦30% viral titer at 5 μM)	
O=C(c1ccccc1F)N1C[C@H](c2ccsc2)[C@H]2CN(Cc3ccccn3)CC[C@H]21		− (>60% viral titer at 15 μM (highest concentration tested))
Cc1nn(C)cc1CN1CC[C@H]2[C@@H](C1)[C@H](c1ccc(F)cc1)CN2C(=O)c1cccnc1	− (>60% viral titer at 15 μM (highest concentration tested))	
O=C(c1cccs1)N1CC(c2ccc(F)cc2)C2CN(Cc3ccccc3F)CCC21 (centres unmarked)		+ (≦60% viral titer at 15 μM)
COc1cccc(CN2CC[C@H]3[C@@H](C2)[C@H](c2ccsc2)CN3C(=O)c2ccncc2)c1	− (>60% viral titer at 15 μM (highest concentration tested))	

Source: patent US9056099B2, “Compositions and methods for treating viral diseases” (NovaDrug, LLC, priority 2010, dated 2015)
